In patent US20250179055A1, “Substituted 2-(pyrrolidine-3-yl)acetic acid derivative, preparation method and use thereof” (INNOVSTONE THERAPEUTICS LIMITED, priority 2023, published 2025):

Tests used:
serum Lp(a) = experiment: Humanized mouse Lp(a) inhibition test; format: in vivo, humanized Lp(a) transgenic mouse; details: blood 8 h after last dose, humanized Lp(a) mice
Method: The in vivo pharmacodynamics of the compounds in reducing Lp(a) was evaluated in a humanized Lp(a) transgenic mouse model. Lp(a) mice were obtained by crossing mice expressing humanized apoB-100 with mice expressing humanized apo(a) containing 16 Kringle repeats. Female mice aged 8-9 weeks were selected for the test. Housing conditions: standard light cycle (12 h light/12 h dark), temperature 20-25° C., humidity 40-70%, free access to water and normal diet. is One day before the test, mice were divided into vehicle control group and test article group (n=5/group) according to body weight and baseline plasma Lp(a) concentration. Mice were orally administered with vehicle (normal saline, 10 mL/kg) or test compound (prepared with normal saline to 3 or 0.5 mg/mL, each mouse received 10 mL/kg), once daily (9:00 am) for 3 consecutive days, and blood was collected to determine the change of serum Lp(a). Eight hours after the last dose, 10 μL of blood was collected from the tail vein and transferred to a 1.5 mL centrifuge tube containing 90 μL of normal saline, mixed well, and left to stand on ice for 30 min. The above samples were centrifuged at 4° C., 3000 rpm for 10 min, and the supernatant was collected and placed on ice. The Lp(a) concentration in the supernatant was measured by double-antibody sandwich ELISA using an anti-apo(a) capture antibody and an HRP-conjugated anti-ApoB detection antibody, with TMB for color development. The reaction was stopped with 1 N sulfuric acid, and the OD value was read at 450 nm on a Tecan microplate reader. Inhibition rate was calculated for each dosing group. Inhibition rate (%)=(vehicle control group Lp(a) concentration or self pre-dose Lp(a) concentration post-dose Lp(a) concentration)/vehicle control group Lp(a) concentration or self pre-dose Lp(a) concentration*100.

[1] = Pharmacokinetic test in C57BL/6J female mice; format: in vivo; details: mouse, plasma; for bioavailability: gavage 10 mg/kg vs intravenous 2 mg/kg
Method: C57BL/6J female mice were used as test animals, and the drug concentration in plasma of C57BL/6J female mice at different time points after intravenous and gavage administration was determined to study the pharmacokinetic characteristics of the compound in C57BL/6J female mice.
Drug formulation: a certain amount of compound was weighed and normal saline was added to prepare clear, colorless solutions of 0.4 mg/mL (IV) and 1 mg/mL (PO).
Test procedure: C57BL/6J female mice were fasted overnight before gavage administration, followed by non-fasted intravenous administration. The intravenous dose was 2 mg/kg, and the gavage dose was 10 mg/kg. Approximately 0.03 mL of blood was collected from the orbital venous plexus at 0.083 (IV), 0.25, 0.5, 1, 2, 4, 8 and 24 h after administration, respectively, placed in a centrifuge tube containing EDTA-K2, centrifuged at 3000 rpm/min at 2-8° C. for 10 min to obtain plasma, and stored at −80° C.
Determination of the content of the compound to be tested in plasma of C57BL/6J female mice at different blood collection time points: 10 μL of plasma of C57BL/6J female mice collected at each time point after administration of LY3473329 and the compound of this application was added with 200 μL of 500 mM trichloroacetic acid aqueous solution to precipitate protein, which contained 100 ng/mL internal standard, vortexed for 1 min, centrifuged at 14000 rpm for 7 min for samples treated with test tubes, and centrifuged at 4000 rpm for 10 min for samples treated with 96-well plates, and 190 μL of the supernatant was transferred to a 96-well plate, and 8 μL of the supernatant was injected for LC-MS/MS analysis. WO2023078333A1 Example 6:12 μL of plasma of C57BL/6J female mice collected at each time point after administration was added with 240 μL of methanol to precipitate protein, which contained 10 ng/mL internal standard, vortexed for 1 min, centrifuged at 14000 rpm for 7 min for samples treated with test tubes, and centrifuged at 4000 rpm for 10 min for samples treated with 96-well plates. 220 μL of the supernatant was transferred to a 96-well plate, and 10 μL of the supernatant was taken for LC-MS/MS analysis.
After plasma concentrations were determined by LC/MS/MS analysis method, pharmacokinetic parameters (e.g. Cmax, AUC, T1/2, etc.) were calculated using WinNonlin software and noncompartmental analysis.

[2] = molecular target: Lp(a) assembly in HepG2 cells overexpressing ApoA protein (Homo sapiens (Human), UniProt P08519); experiment: ELISA assay on screening Lp(a) assembly inhibition; format: cell-based; details: HepG2 cells overexpressing ApoA protein, 24 h, ELISA of supernatant
In short: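 HepG2 cells overexpressing ApoA treated with diluted compounds for 24 h at 37 °C, 5% CO2; EACA (10 μL of 1.5 M) added before harvesting supernatant. Secreted Lp(a) quantified by sandwich ELISA; IC50 from four-parameter Hill fit of % inhibition versus concentration.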

[3] = Safety assessment test in rats (14-day oral gavage); format: in vivo; details: SD rats, 300 and 1000 mg/kg oral once daily for 14 days
Method: The safety of the compounds of the present invention was evaluated by oral gavage administration to SD rats as the test animals.
Test method: 50 SD rats (half males and half females) were randomly divided into vehicle control group and test article group according to their body weight. The vehicle saline or the compound of the present invention or LY3473329 (300 mg/kg, 1000 mg/kg) was administered orally once daily for 14 consecutive days.

[4] = 5 mg/kg oral once daily for 3 days
[5] = intravenous administration, 2 mg/kg
[6] = po, gavage administration, 10 mg/kg

Lp(a) assembly in HepG2 cells overexpressing ApoA protein, sequence (P08519 20-2040): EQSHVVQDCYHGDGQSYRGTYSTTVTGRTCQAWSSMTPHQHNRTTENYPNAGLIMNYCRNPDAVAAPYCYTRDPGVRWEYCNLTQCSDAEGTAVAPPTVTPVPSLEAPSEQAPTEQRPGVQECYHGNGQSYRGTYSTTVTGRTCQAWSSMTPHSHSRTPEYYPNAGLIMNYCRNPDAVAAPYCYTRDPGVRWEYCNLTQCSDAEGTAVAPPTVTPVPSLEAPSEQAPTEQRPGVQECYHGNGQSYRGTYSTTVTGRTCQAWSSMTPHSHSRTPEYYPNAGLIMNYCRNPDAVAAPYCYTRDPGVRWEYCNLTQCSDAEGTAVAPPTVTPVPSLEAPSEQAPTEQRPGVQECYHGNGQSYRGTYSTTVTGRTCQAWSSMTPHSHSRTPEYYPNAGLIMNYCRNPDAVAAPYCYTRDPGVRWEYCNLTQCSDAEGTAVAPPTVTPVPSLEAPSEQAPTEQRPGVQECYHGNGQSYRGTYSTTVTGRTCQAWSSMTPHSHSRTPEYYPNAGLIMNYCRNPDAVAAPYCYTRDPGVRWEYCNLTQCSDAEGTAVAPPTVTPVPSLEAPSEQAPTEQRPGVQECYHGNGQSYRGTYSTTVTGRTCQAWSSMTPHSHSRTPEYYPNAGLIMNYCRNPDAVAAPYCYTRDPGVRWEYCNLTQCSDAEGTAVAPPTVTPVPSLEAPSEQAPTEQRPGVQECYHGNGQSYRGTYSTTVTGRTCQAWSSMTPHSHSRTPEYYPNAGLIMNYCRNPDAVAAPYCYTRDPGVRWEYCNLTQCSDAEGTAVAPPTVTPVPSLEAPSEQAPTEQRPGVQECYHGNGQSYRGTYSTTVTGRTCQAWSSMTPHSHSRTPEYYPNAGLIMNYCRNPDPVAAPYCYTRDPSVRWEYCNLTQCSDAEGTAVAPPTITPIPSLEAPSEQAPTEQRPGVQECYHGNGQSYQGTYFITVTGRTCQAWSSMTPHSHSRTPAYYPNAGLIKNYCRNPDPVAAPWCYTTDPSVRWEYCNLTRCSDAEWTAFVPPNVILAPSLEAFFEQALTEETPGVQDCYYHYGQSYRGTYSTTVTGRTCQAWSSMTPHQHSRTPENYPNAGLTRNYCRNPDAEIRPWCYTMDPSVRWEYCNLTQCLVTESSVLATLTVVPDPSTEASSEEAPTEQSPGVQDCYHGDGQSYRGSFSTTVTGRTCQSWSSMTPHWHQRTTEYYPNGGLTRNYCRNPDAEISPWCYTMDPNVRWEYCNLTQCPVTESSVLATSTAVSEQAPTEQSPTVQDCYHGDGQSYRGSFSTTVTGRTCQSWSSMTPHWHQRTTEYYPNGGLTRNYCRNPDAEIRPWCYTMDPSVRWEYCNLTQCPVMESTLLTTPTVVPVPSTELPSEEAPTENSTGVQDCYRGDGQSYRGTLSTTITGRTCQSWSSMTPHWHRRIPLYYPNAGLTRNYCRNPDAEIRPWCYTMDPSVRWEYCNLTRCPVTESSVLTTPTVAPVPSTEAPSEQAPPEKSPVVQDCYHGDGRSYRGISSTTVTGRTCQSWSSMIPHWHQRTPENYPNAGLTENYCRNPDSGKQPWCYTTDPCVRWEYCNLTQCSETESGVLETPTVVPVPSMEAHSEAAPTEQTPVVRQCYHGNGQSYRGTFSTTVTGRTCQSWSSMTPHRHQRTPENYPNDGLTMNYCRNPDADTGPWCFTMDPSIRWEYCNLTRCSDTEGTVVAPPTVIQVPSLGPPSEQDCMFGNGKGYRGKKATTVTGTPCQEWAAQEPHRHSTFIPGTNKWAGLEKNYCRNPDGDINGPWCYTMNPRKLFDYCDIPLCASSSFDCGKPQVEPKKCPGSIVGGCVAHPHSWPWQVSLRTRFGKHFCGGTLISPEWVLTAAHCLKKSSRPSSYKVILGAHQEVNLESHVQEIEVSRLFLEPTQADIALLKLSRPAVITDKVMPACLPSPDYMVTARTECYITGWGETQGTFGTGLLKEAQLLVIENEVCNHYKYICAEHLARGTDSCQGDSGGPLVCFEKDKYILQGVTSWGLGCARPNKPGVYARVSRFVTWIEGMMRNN

Row | Structure (SMILES) | Lp(a) Inhibition Rate (serum Lp(a); [4]) | Lp(a) Inhibition Rate (serum Lp(a); 30 mg/kg oral once daily for 3 days) | AUC [1, 5] | half-life [1, 5] | bioavailability ([1]; po) | AUC [1, 6] | Cmax [1, 6] | half-life [1, 6] | IC50 [2] | compound-related changes in clinical observation, body weight, food consumption, hematology, blood biochemistry, urine, organ weight, histopathology [3]
1 | O=C(O)[C@@H](Cc1cccc(CC(=O)N(CCOc2cccc(C[C@H](C(=O)O)[C@H]3CCNC3)c2)Cc2cccc(C[C@H](C(=O)O)[C@H]3CCNC3)c2)c1)[C@H]1CCNC1 [Compound 96, (S)-3-(3-(2-((3-((S)-2-carboxy-2-((R)-pyrrolidin-3-yl)ethyl)benzyl)(2-(3-((S)-2-carboxy-2-((R)-pyrrolidin-3-yl)ethyl)phenoxy)ethyl)amino)-2-oxoethyl)phenyl)-2-((R)-pyrrolidin-3-yl)propanoic acid] | 91% | 96% | 22900 ng·h/mL | 23.3 h | 13.9% | 12400 ng·h/mL | 919 ng/mL | 11.4 h | 0.58 nM | 
2 | O=C(O)[C@@H](Cc1cccc(CN(CCOc2cccc(C[C@H](C(=O)O)[C@H]3CCNC3)c2)C(=O)Nc2cccc(C[C@H](C(=O)O)[C@H]3CCNC3)c2)c1)[C@H]1CCNC1 [Compound 131, (S)-3-(3-(3-(3-((S)-2-carboxy-2-((R)-pyrrolidin-3-yl)ethyl)benzyl)-3-(2-(3-((S)-2-carboxy-2-((R)-pyrrolidin-3-yl)ethyl)phenoxy)ethyl)ureido)phenyl)-2-((R)-pyrrolidin-3-yl)propanoic acid] | 81% |  | 31300 ng·h/mL | 33.7 h | 13.2% | 14300 ng·h/mL | 893 ng/mL | 16 h | 1.19 nM | 
3 | O=C(O)[C@@H](Cc1cccc(CC(=O)N(CCCOc2cccc(C[C@H](C(=O)O)[C@H]3CCNC3)c2)Cc2cccc(C[C@H](C(=O)O)[C@H]3CCNC3)c2)c1)[C@H]1CCNC1 [Compound 159, (S)-3-(3-(2-((3-((S)-2-carboxy-2-((R)-pyrrolidin-3-yl)ethyl)benzyl)(3-(3-((S)-2-carboxy-2-((R)-pyrrolidin-3-yl)ethyl)phenoxy)propyl)amino)-2-oxoethyl)phenyl)-2-((R)-pyrrolidin-3-yl)propanoic acid] | 84% |  | 33400 ng·h/mL | 35.5 h | 13.5% | 21000 ng·h/mL | 874 ng/mL | 28.9 h | 1.68 nM | 
4 | O=C(O)[C@@H](Cc1cccc(COCCN(Cc2cccc(C[C@H](C(=O)O)[C@H]3CCNC3)c2)C(=O)Cc2cccc(C[C@H](C(=O)O)[C@H]3CCNC3)c2)c1)[C@H]1CCNC1 [Compound 160, (S)-3-(3-(2-((3-((S)-2-carboxy-2-((R)-pyrrolidin-3-yl)ethyl)benzyl)(2-((3-((S)-2-carboxy-2-((R)-pyrrolidin-3-yl)ethyl)benzyl)oxy)ethyl)amino)-2-oxoethyl)phenyl)-2-((R)-pyrrolidin-3-yl)propanoic acid] | 83% |  | 19200 ng·h/mL | 12.1 h | 15.9% | 23500 ng·h/mL | 816 ng/mL | 28.8 h | 1.37 nM | 
5 | O=C(O)[C@@H](Cc1cccc(CN(Cc2cccc(C[C@H](C(=O)O)[C@H]3CCNC3)c2)Cc2cccc(C[C@H](C(=O)O)[C@H]3CCNC3)c2)c1)[C@H]1CCNC1 [LY3473329, reference compound] |  |  | 8820 ng·h/mL | 9.8 h | 10.1% | 4460 ng·h/mL | 629 ng/mL | 7.4 h |  | no changes
